Source: the NIST ThermoML archive (doi:10.1016/j.jct.2012.05.009)

Assay: mn = molality of the nth substance listed, in mol/kg
Settings: 101 kPa, Liquid, Vibrating tube method

CC(=O)CCCCn1c(=O)c2c(ncn2C)n(C)c1=O [3,7-dimethyl-1-(5-oxohexyl)-3,7-dihydro-1H-purine-2,6-dione] + O
mass density [kg/m3]
Settings	m1 = 0.09736	m1 = 0.0976	m1 = 0.09842	m1 = 0.09851	m1 = 0.1012
293.15 K	1003.77	1003.77	1003.81	1003.83	1003.97
298.15 K	1002.51	1002.51	1002.55	1002.57	1002.7
303.15 K	1001.02	1001.02	1001.06	1001.08	1001.21
308.15 K	999.319	999.32	999.356	999.381	999.508
